Results published in patent US12312347B2, “Azaindole derivative and use thereof as FGFR and C-Met inhibitor” (Wuxi Life Fountain Biotech Co., Ltd, priority 2018, dated 2025).
Structures can show the parent of a compound that is named as a salt.

How the values were obtained:
Type in all cases: biochemical
human c-Met = molecular target: T1, human c-Met (Homo sapiens, UniProt P08581); experiment: 33P isotope-labeled kinase activity test, c-Met; settings: ATP 10 μM
T1 construct: purchased Invitrogen PV3143
T1 sequence (P08581 25-1390): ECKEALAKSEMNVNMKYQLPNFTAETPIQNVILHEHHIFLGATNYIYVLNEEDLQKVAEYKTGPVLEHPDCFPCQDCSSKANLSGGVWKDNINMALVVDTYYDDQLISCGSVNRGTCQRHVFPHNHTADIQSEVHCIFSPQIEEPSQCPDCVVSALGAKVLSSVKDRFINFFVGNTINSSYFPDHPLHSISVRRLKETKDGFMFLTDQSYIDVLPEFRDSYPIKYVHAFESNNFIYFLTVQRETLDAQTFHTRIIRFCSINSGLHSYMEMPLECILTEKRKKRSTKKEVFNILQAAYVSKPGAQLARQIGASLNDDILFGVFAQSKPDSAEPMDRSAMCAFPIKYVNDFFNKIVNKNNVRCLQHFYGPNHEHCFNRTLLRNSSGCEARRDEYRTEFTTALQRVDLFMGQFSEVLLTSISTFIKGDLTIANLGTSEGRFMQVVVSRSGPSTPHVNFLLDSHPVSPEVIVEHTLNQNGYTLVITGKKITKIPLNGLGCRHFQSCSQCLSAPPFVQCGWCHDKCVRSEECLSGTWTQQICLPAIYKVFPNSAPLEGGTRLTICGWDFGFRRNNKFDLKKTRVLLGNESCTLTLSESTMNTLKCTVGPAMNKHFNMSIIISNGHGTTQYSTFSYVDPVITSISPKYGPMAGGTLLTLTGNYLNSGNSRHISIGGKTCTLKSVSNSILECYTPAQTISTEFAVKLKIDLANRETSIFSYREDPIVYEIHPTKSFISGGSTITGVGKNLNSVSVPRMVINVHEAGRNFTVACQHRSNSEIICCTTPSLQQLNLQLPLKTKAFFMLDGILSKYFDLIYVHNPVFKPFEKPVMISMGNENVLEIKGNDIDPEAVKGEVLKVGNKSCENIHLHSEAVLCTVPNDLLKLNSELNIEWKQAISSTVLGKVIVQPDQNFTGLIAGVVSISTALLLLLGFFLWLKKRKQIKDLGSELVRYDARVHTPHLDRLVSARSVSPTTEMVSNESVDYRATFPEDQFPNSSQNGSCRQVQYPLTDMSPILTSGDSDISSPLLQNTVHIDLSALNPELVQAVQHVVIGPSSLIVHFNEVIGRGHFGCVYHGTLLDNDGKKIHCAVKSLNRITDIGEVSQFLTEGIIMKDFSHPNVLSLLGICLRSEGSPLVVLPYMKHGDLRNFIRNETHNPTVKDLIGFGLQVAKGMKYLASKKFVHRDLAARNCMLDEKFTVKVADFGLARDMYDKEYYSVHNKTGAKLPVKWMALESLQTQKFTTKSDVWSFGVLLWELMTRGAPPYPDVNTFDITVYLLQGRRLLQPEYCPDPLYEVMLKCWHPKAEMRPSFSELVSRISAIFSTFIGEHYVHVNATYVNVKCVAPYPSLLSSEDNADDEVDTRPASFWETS
Experimental: (§1) The inhibitory activities of the tested compounds on human FGFR1, FGFR4, and c-Met were evaluated by the IC50 values measured using ^33P isotope-labeled kinase activity test (Reaction Biology Corp).
(§2) Buffer condition: 20 mM Hepes (pH 7.5), 10 mM MgCl2, 1 mM EGTA, 0.02% Brij35, 0.02 mg/mL BSA, 0.1 mM Na3VO4, 2 mM DTT, 1% DMSO.
(§3) Test procedure: The test compounds were dissolved in DMSO at room temperature and formulated to be 10 mM solutions for later use. The substrates were dissolved in freshly prepared buffer, and kinases to be tested were added and mixed well. The test compounds dissolved in DMSO were added to the above mixed reaction solutions by acoustic technique (Echo 550). The concentration of the compound in reaction solution was 1 μM, 0.25 μM, 0.156 μM, 3.91 nM, 0.977 nM, 0.244 nM, 0.061 nM, 0.0153 nM, 0.00381 nM or 10 μM, 2.50 μM, 0.62 μM, 0.156 μM, 39.1 nM, 9.8 nM, 2.4 nM, 0.61 nM, 0.15 nM, 0.038 nM. After incubation for 15 min, ^33P-ATP (activity 0.01 μCi/μL, corresponding concentrations are listed in Table 1) was added to start the reaction. Supplier item number, batch number, as well as the concentration information in the reaction solution of FGFR1, FGFR4, c-Met and substrates thereof are listed in Table 1. […] The kinase activity data are expressed by comparison between the kinase activity in the test compound group and the kinase activity in the blank group (containing DMSO only). IC50 values were obtained by curve fitting with Prism4 software (GraphPad).

human FGFR1 = molecular target: T2, human FGFR1 (Homo sapiens, UniProt P11362); experiment: 33P isotope-labeled kinase activity test, FGFR1; settings: ATP 5 μM
T2 construct: purchased Invitrogen PV3146
T2 sequence (P11362 22-822): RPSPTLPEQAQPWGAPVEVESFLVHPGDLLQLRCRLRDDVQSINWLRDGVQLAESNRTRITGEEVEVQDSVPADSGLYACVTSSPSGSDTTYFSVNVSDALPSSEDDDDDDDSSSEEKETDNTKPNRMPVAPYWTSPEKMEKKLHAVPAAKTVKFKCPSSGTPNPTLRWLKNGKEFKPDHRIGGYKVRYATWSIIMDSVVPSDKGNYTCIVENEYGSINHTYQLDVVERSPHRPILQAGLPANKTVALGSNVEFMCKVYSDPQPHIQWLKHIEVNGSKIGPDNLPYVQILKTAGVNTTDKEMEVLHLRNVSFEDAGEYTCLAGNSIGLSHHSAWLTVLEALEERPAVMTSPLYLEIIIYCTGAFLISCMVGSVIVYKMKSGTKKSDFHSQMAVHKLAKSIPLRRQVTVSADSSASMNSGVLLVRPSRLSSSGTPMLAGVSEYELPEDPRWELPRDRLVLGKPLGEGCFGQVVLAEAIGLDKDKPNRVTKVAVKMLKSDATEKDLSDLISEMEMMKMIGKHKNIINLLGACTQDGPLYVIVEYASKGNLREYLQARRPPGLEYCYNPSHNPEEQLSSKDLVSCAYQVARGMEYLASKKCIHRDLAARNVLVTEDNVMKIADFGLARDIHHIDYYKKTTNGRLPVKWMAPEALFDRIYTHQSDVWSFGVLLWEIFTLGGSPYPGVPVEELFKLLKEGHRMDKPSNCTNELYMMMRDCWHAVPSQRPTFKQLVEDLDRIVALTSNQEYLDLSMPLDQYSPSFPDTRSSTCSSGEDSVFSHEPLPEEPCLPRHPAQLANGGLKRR
Experimental: as §1, §2
as §3, with “The concentration of the compound in reaction solution was 1 μM, 0.25 μM, 0.156 μM, 3.91 nM, 0.977 nM, 0.244 nM, 0.061 nM, 0.0153 nM, 0.00381 nM or 10 μM, 2.50 μM, 0.62 μM, 0.156 μM, 39.1 nM, 9.8 nM, 2.4 nM, 0.61 nM, 0.15 nM, 0.038 nM.” left out

human FGFR4 = molecular target: T3, human FGFR4 (Homo sapiens, UniProt P22455); experiment: 33P isotope-labeled kinase activity test, FGFR4; settings: ATP 100 μM
T3 construct: purchased Invitrogen P3054
T3 sequence (P22455 22-802): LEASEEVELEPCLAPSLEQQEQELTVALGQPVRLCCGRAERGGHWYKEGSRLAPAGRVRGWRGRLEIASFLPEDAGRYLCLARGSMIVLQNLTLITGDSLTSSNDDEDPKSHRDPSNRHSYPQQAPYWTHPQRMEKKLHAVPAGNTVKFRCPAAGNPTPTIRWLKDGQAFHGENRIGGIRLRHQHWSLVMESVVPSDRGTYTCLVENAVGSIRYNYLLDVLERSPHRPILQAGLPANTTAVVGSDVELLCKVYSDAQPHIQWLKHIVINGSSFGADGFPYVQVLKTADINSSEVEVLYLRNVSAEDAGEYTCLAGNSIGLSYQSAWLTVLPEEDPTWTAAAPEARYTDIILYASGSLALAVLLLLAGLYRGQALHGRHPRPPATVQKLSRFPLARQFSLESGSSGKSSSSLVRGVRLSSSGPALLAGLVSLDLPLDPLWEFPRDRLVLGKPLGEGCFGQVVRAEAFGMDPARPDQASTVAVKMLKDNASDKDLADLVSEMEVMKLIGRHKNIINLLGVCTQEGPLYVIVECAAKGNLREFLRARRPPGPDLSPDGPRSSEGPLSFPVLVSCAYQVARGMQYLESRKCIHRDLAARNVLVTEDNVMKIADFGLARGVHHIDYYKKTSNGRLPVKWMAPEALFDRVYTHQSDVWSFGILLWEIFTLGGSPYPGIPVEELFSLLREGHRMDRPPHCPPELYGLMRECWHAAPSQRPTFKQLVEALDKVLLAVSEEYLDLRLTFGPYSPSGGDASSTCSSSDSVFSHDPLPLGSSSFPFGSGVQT
Experimental: as §1, §2, §3

| Compound | IC50 (human c-Met) [nM] | IC50 (human FGFR1) [nM] | IC50 (human FGFR4) [nM] |
| --- | --- | --- | --- |
| COc1cc(OC)c(F)c(Cc2c[nH]c3ncc(-c4cnn(C5CN(S(C)(=O)=O)C5)c4)cc23)c1F [Trifluoroacetate salt of embodiment 23] | 21 | 4.85 | 43.9 |
| CCN1CCc2ncc(-c3cnc4[nH]cc(Cc5c(F)c(OC)cc(OC)c5F)c4c3)cc2C1 [Trifluoroacetate salt of embodiment 53] | 107 | 0.32 | 2.9 |
| CCN1CCC(n2ncc(-c3cnc4[nH]cc(Cc5c(F)c(OC)cc(OC)c5F)c4c3)c2Cl)CC1 [Hydrochloride of embodiment 40] | 14.6 | 0.4 | 21.5 |
| COc1ccc(F)c(Cc2c[nH]c3ncc(-c4cnn(C5CCNCC5)c4)cc23)c1F [Trifluoroacetate salt of embodiment 19] | 5.7 | 13.7 | 262 |
| COc1cc(OC)c(F)c(Cc2c[nH]c3ncc(-c4cnn(C5CCN(CCO)CC5)c4)cc23)c1F [Embodiment 16] | 10.5 | 0.73 | 16.1 |
| COc1cc(OC)c(F)c(Cc2c[nH]c3ncc(-c4cnc5c(c4)CNCC5)cc23)c1F [Trifluoroacetate salt of embodiment 52] | 137 | 0.06 | 13.7 |
| COc1cc(OC)c(F)c(Cc2c[nH]c3ncc(-c4c(C)nn(CCO)c4C)cc23)c1F [Hydrochloride of embodiment 34] | 86.7 | 8.9 | 126 |
| COc1cc(OC)c(F)c(Cc2c[nH]c3ncc(-c4cncc(C5(C#N)CCNCC5)c4)cc23)c1F [Trifluoroacetate salt of embodiment 61] | 243 | 0.7 | 4.5 |
| COc1cc(OC)c(F)c(Cc2c[nH]c3ncc(-c4cccc(C5(C#N)CCNCC5)c4)cc23)c1F [Trifluoroacetate salt of embodiment 59] | 127 | 0.8 | 14.7 |
| CCN1CCC(n2cc(-c3cnc4[nH]cc(Cc5c(F)c(OC)cc(OC)c5F)c4n3)cn2)CC1 [Trifluoroacetate salt of embodiment 6] | 74.3 | 0.04 | 15.2 |
| CCN1Cc2cc(-c3cnc4[nH]cc(Cc5c(F)c(OC)cc(OC)c5F)c4c3)cnc2C1 [Trifluoroacetate salt of embodiment 51] | 84.1 | 0.27 | 3 |
| COc1cc(OC)c(F)c(Cc2c[nH]c3ncc(-c4cnn(CC(C)(C)O)c4)cc23)c1F [Trifluoroacetate salt of embodiment 66] | 28 | 0.5 | 9 |
| COc1cc(OC)c(F)c(Cc2c[nH]c3ncc(-c4cnn(CCO)c4)nc23)c1F [Trifluoroacetate salt of embodiment 8] | 496 | 0.43 | 20.7 |
| COCCNCCn1cc(-c2cnc3[nH]cc(Cc4c(F)c(OC)cc(OC)c4F)c3c2)cn1 [Hydrochloride of embodiment 70] | 31.4 | 0.5 | 5 |
| CCN1CCC(C#N)(c2cccc(-c3cnc4[nH]cc(Cc5c(F)c(OC)cc(OC)c5F)c4c3)c2)CC1 [Trifluoroacetate salt of embodiment 60] | 320 | 2.2 | 33.4 |
| COc1cc(OC)c(F)c(Cc2c[nH]c3ncc(-c4cnn(C5CCN(C)CC5)c4)cc23)c1F [Trifluoroacetate salt of embodiment 13] | 7.62 | 0.04 | 9 |

| Compound | IC50 (human c-Met) [nM] | IC50 (human FGFR1) [nM] | IC50 (human FGFR4) [nM] |
| --- | --- | --- | --- |
| CCN1CC(n2cc(-c3cnc4[nH]cc(Cc5c(F)c(OC)cc(OC)c5F)c4c3)cn2)C1 [Trifluoroacetate salt of embodiment 25] | 16.9 | 2.1 | 31.9 |
| CCN1CCC2(CC1)C(=O)Nc1cc(-c3cnc4[nH]cc(Cc5c(F)c(OC)cc(OC)c5F)c4c3)ccc12 [Trifluoroacetate salt of embodiment 55] | 22.8 | 2.2 | 44.9 |
| CCN1CCC(C#N)(c2ccc(-c3cnc4[nH]cc(Cc5c(F)c(OC)cc(OC)c5F)c4c3)cc2)CC1 [Trifluoroacetate salt of embodiment 58] | 162 | 1.2 | 23.5 |
| COc1cc(OC)c(F)c(Cc2c[nH]c3ncc(-c4cnn(CC(O)CNC(C)C)c4)cc23)c1F (stereo not drawn) [Hydrochloride of embodiment 71] | 32.8 | 0.4 | 4.9 |
| COc1ccc(Cl)c(Cc2c[nH]c3ncc(-c4cnn(C5CCNCC5)c4)nc23)c1Cl [Embodiment 7] | 41.5 | 85.9 | > 10000 |
| COc1cc(OC)c(F)c(Cc2c[nH]c3ncc(-c4cnn(C5CCN(C(C)C)CC5)c4)cc23)c1F [Trifluoroacetate salt of embodiment 14] | 14 | 1.34 | 27.5 |
| COc1cc(OC)c(F)c(Cc2c[nH]c3ncc(-c4cnc5c(c4)CNC5)cc23)c1F [Trifluoroacetate salt of embodiment 50] | 136 | 0.12 | 4.4 |
| COc1cc(OC)c(F)c(Cc2c[nH]c3ncc(-c4cnn(C5CCN(C6COC6)CC5)c4)cc23)c1F [Trifluoroacetate salt of embodiment 15] | 16 | 1.94 | 25.9 |
| COc1cc(OC)c(F)c(Cc2c[nH]c3ncc(-c4cnn(CC5CNC5)c4)cc23)c1F [Trifluoroacetate salt of embodiment 29] | 35.6 | 1.9 | 24.6 |
| CCN1CCC(n2cc(-c3cnc4[nH]cc(Cc5c(F)c(OC)cc(OC)c5F)c4c3)c(C#N)n2)CC1 [Hydrochloride of embodiment 42] | 7.1 | 1.4 | 10.2 |
| CCN(CC)CCn1cc(-c2cnc3[nH]cc(Cc4c(F)c(OC)cc(OC)c4F)c3c2)cn1 [Hydrochloride of embodiment 69] | 35.3 | 0.6 | 8.4 |
| CCN1CCC(n2cc(-c3cnc4[nH]cc(Cc5c(F)ccc(OC)c5F)c4c3)c(C)n2)CC1 [Trifluoroacetate salt of embodiment 39] | 24.5 | 29 | 752 |
| COc1cc(OC)c(F)c(Cc2c[nH]c3ncc(-c4cnn(CCN(C)C)c4)cc23)c1F [Hydrochloride of embodiment 28] | 25.9 | 0.55 | 20.2 |
| COc1cc(OC)c(F)c(Cc2c[nH]c3ncc(-c4cnn(S(C)(=O)=O)c4)cc23)c1F [Trifluoroacetate salt of embodiment 30] | 169 | 2.1 | 28.2 |
| COc1cc(OC)c(F)c(CC2=CN=C3N=CC(c4cnn(CCN5CCOCC5)c4)=CC23)c1F (stereo not drawn) [Trifluoroacetate salt of embodiment 21] | 55.9 | 2 | 25.2 |
| COc1cc(OC)c(F)c(Cc2c[nH]c3ncc(-c4ccc(C5(C#N)CCNCC5)cc4)cc23)c1F [Hydrochloride of embodiment 57] | 49.4 | 1.1 | 21.4 |
